Experimental data as given in paper PMC8258795 (Computational and Structural Biotechnology Journal, 2021).

Tests used:
LRRK2 G2019S [1] = target: T1, LRRK2 G2019S (Homo sapiens, UniProt Q5S007, G2019S); assay: LRRK2 G2019S kinase activity inhibition, 33P-ATP P81 filter-binding (Reaction Biology); assay type: biochemical
Method: (§1) The six hit compounds from the virtual screening were ordered from Selleckchem (Houston, Texas, USA). […] Stocks of all compounds were shipped to Reaction Biology Corporation (Malvern, Pennsylvania, USA) and Eurofins DiscoverX (Fremont, California, USA) for IC50 and Kd determination, respectively. The IC50 and Kd assays were performed as service by the companies.
Compounds were dissolved and diluted in 100% DMSO. […] Compounds were delivered into the reaction mixture. After a 20 min incubation, ^33P-ATP was added to a final concentration of 10 μM to initiate the reaction. Reactions were carried out for 2 h at room temperature. The final enzyme and substrate concentrations were 20 nM and 20 μM, respectively. Kinase activity was detected by the P81 filter-binding method. The whole procedure is also described in [40].
(§2) A specific challenge to our drug repositioning approach was the use of a homolog structure as template instead of a LRRK2 structure. To validate the virtual screening results, all six top candidates were tested for in vitro inhibition of LRRK2 kinase activity.

LRRK2 G2019S [2] = target: T1, LRRK2 G2019S; assay: KINOMEscan competition binding assay (Eurofins DiscoverX); settings: competition with active-site directed ligand, duplicates
Method: as §1
The compounds were tested at 11 different concentrations in duplicates with 3-fold serial dilution starting at 100 μM. Compounds were dissolved and diluted in 100% DMSO. […] Shortly, streptavidin-coated magnetic beads were treated with the biotinylated competitive ligand for 30 min at room temperature. The liganded beads were blocked with excess biotin and washed with blocking buffer (SeaBlock (Pierce), 1% BSA, 0.05% Tween 20, 1 mM DTT) to remove unbound ligand and to reduce non-specific binding. […] The kinase concentration in the eluates was measured by qPCR.
as §2

[3] = cited from earlier work; for BBB Permeable: prediction confirmed or corrected by literature
[4] = peptide substrate, 10 μM ATP, duplicates

SMILES | IC50 (LRRK2 G2019S [1]; [4]) [µM] | Kd (LRRK2 G2019S [2]) [µM] | BBB Permeable [3] | brain penetration ([3]; statement in discussion) | IC50 (LRRK2 G2019S [1]; values in text) [µM]
O=C1Nc2ccc(Cl)cc2[C@@](C#CC2CC2)(C(F)(F)F)O1 [Efavirenz] | > 100 | > 100 | supported by literature and Yes | – | –
C[C@@H](Oc1cc(-c2cnn(C3CCNCC3)c2)cnc1N)c1c(Cl)ccc(F)c1Cl [Crizotinib] | – | – | poor and No | – | –
C[C@H]1Oc2cc(cnc2N)-c2c(nn(C)c2C#N)CN(C)C(=O)c2ccc(F)cc21 [Lorlatinib] | – | – | – | brain penetrant | –
CCCc1nc(C)c2c(=O)[nH]c(-c3cc(S(=O)(=O)N4CCN(CC)CC4)ccc3OCC)nn12 [Vardenafil] | – | > 100 | – | – | 47
CCN(CC)CCNC(=O)c1c(C)[nH]c(/C=C2\C(=O)Nc3ccc(F)cc32)c1C [Sunitinib] | – | – | supported by literature and Yes | – | –
O=C1Nc2ccc(I)cc2/C1=C/c1cc(Br)c(O)c(Br)c1 [GW 5074] | < 0.0051 | 0.79 | – | – | –
Fc1ccc([C@@H]2CCNC[C@H]2COc2ccc3c(c2)OCO3)cc1 [Paroxetine] | > 100 | > 100 | supported by literature and Yes | – | –
